Laboratory results: patent US4594342A, “1,5-benzothiazepine derivative” (priority 1984, dated 1986)
Counter-ions that a name gives are not always drawn.

How the values were obtained:
rat platelets [1] = experiment: Inhibitory effect ex vivo on collagen-induced platelet aggregation of rat platelets after oral administration (Experiment 2); format: in vivo; details: 10 mg/kg orally, Sprague-Dawley rats fasted about 20 hours, blood 3 hours after administration
Method: A test compound solution (Dose: 10 mg/kg) was orally administered to Sprague-Dawley rats fasted for about 20 hours. Three hours after administration, blood was collected from the abdominal aorta of the rats. […] The bottom layer was further centrifuged to give platelet-poor plasma ("PPP") as the supernatant solution. PRP was diluted with PPP so that the blood platelet counts were 0.8-1×10^6 /mm^3.

Human platelets = experiment: Inhibitory effects in vitro on collagen-induced platelet aggregation of human platelets (Experiment 1); format: cell-based; details: human PRP, 37° C., read-out: IC50 (concentration of test compound required to induce 50% inhibition of collagen-induced platelet aggregation)
Excerpt: (§1) (Inhibitory effects in vitro on collagen-induced platelet aggregation of rat or human platelets)
(§2) The bottom layer was further centrifuged to give platelet-poor plasma ("PPP") as the supernatant solution. Platelet counts were adjusted to about 0.8-1×10^6 /mm^3 for rat PRP and about 4×10^5 /mm^3 for human PRP by dilution with PPP.

Rat platelets [2] = experiment: Inhibitory effects in vitro on collagen-induced platelet aggregation of rat platelets (Experiment 1); format: cell-based; details: rat PRP, 37° C., read-out: IC50 (concentration of test compound required to induce 50% inhibition of collagen-induced platelet aggregation)
Excerpt: as §1, §2

| IC50 (Human platelets) [µg/mL] | IC50 (Rat platelets [2]) [µg/mL] | SMILES | Platelet aggregation-inhibiting activity (rat platelets [1]) |
| --- | --- | --- | --- |
|  |  | CNCCN1C(=O)[C@H](O)[C@H](c2ccc(OC)cc2)Sc2cc(C)ccc21.Cl (racemic) [(±)-cis-2-(4-methoxyphenyl)-3-hydroxy-5-[2-(N-methylamino)ethyl]-8-methyl-2,3-dihydro-1,5-benzothiazepin-4(5H)-one hydrochloride] | ++ ((++) if the percentage inhibition is not less than 50%) |
| 0.3 |  | Br.CNCCN1C(=O)[C@H](O)[C@H](c2ccc(C)cc2)Sc2ccccc21 (racemic) [(±)-cis-2-(4-methylphenyl)-3-hydroxy-5-[2-(N-methylamino)ethyl]-2,3-dihydro-1,5-benzothiazepin-4(5H)-one hydrobromide] |  |
|  |  | CNCCN1C(=O)[C@H](O)[C@H](c2ccc(OC)cc2)Sc2cc(O)ccc21 (relative stereo) [(±)-cis-2-(4-methoxyphenyl)-3,8-dihydroxy-5-[2-(N--methylamino)ethyl]-2,3-dihydro-1,5-benzothiazepin-4(5H)--one hydrochloride] | ++ ((++) if the percentage inhibition is not less than 50%) |
|  |  | CNCCN1C(=O)[C@H](OC(C)=O)[C@H](c2ccc(OC)cc2)Sc2cc(C)ccc21 (relative stereo) [(±)-cis-2-(4-methoxyphenyl)-3-acetoxy-5-[2-(N-methylamino)ethyl]-8-methyl-2,3-dihydro-1,5-benzothiazepin-4(5H)-one hydrochloride. 1/2H2 O.1/2C2 H5 OH] | ++ ((++) if the percentage inhibition is not less than 50%) |
| 0.5 | 0.3 to 1 | CNCCN1C(=O)[C@H](O)[C@H](c2ccc(C)cc2)Sc2cc(OC)ccc21 (relative stereo) [(±)-cis-2-(4-methylphenyl)-3-hydroxy-5-[2-(N--methylamino)ethyl]-8-methoxy-2,3-dihydro-1,5-benzothiazepin-4(5H)--one hydrochloride] |  |
| 0.3 |  | CNCCN1C(=O)[C@H](O)[C@H](c2ccc(C)cc2)Sc2cc(C)ccc21 (relative stereo) [(±)-cis-2-(4-methylphenyl)-3-hydroxy-5-[2-(N--methylamino)ethyl]-8-methyl-2,3-dihydro-1,5-benzothiazepin-4(5H)--one hydrochloride] | ++ ((++) if the percentage inhibition is not less than 50%) |
|  | 0.1 to 0.3 | CNCCN1C(=O)[C@H](O)[C@H](c2ccc(C)cc2)Sc2cc(C)ccc21 (relative stereo) [(±)-cis-2-(4-methylphenyl)-3-hydroxy-5-[2-(N--methylamino)ethyl]-8-methyl-2,3-dihydro-1,5-benzothiazepin-4(5H)--one sulfate] |  |
|  |  | CNCCN1C(=O)[C@H](OC(C)=O)[C@H](c2ccc(OC)cc2)Sc2cc(C)ccc21.O=C(O)C(=O)O (single isomer, unassigned) [(-)-cis-2-(4-methoxyphenyl)-3-acetoxy-5-[2-(N-methylamino)ethyl]-8-methyl-2,3-dihydro-1,5-benzothiazepin-4(5H)-one oxalate] | ++ ((++) if the percentage inhibition is not less than 50%) |
|  |  | CNCCN1C(=O)[C@H](O)[C@H](c2ccc(OC)cc2)Sc2cc(C)ccc21 (single isomer, unassigned) [(-)-cis-2-(4-methoxyphenyl)-3-hydroxy-5-[2-(N--methylamino)ethyl]-8-methyl-2,3-dihydro-1,5-benzothiazepin-4(5H)--one hydrobromide] | ++ ((++) if the percentage inhibition is not less than 50%) |
| 0.003 to 0.03 | 0.1 | CNCCN1C(=O)[C@H](O)[C@H](c2ccc(C)cc2)Sc2cc(C)ccc21 (single isomer, unassigned) [(-)-cis-2-(4-methylphenyl)-3-hydroxy-5-[2-(N-methylamino)ethyl]-8-methyl-2,3-dihydro-1,5-benzothiazepin-4(5H)-one hydrochloride hemihydrate] |  |

| SMILES | IC50 (Human platelets) [µg/mL] | IC50 (Rat platelets [2]) [µg/mL] | Platelet aggregation-inhibiting activity (rat platelets [1]) |
| --- | --- | --- | --- |
| CNCCN1C(=O)[C@H](OC(C)=O)[C@H](c2ccc(C)cc2)Sc2cc(OC)ccc21 (relative stereo) [(±)-cis-2-(4-methylphenyl)-3-acetoxy-5-[2-(N--methylamino)ethyl]-8-methoxy-2,3-dihydro-1,5-benzothiazepin-4(5H)--one oxalate] | 0.5 |  |  |
| CNCCN1C(=O)[C@H](OC(C)=O)[C@H](c2ccc(C)cc2)Sc2cc(C)ccc21 (relative stereo) [(±)-cis-2-(4-methylphenyl)-3-acetoxy-5-[2-(N--methylamino)ethyl]-8-methyl-2,3-dihydro-1,5-benzothiazepin-4(5H)--one hydrochloride] |  | 0.5 | ++ ((++) if the percentage inhibition is not less than 50%) |
